Results on 82 compounds are retold here after PubChem BioAssay AID1645868 (Buhrlage Lab, Dana-Farber Cancer Institute and Novartis …, 2021).

Calls of active or inactive are those of the source.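 The calls were made as follows: active = maximal percent inhibition of the deubiquitinase OTUD3 of at least 30% across the tested doses; inactive = the rest.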 A value given as a limit tells only on which side of the number the result lay.

For the experiment, the target named is OTU domain-containing protein 3 (Homo sapiens) (UniProt Q5T2D3). Nature of the experiment: Validation of screening hits, potency titration, in vitro enzymatic, OTU domain-containing protein 3 DUB inhibitors (AID 1645868). As to conditions: purified OTUD3, ubiquitin-rhodamine cleavage fluorescence, 2 h.
Sequence of OTU domain-containing protein 3 (Homo sapiens) (Q5T2D3 whole entry, looked up, the tested form may be a part): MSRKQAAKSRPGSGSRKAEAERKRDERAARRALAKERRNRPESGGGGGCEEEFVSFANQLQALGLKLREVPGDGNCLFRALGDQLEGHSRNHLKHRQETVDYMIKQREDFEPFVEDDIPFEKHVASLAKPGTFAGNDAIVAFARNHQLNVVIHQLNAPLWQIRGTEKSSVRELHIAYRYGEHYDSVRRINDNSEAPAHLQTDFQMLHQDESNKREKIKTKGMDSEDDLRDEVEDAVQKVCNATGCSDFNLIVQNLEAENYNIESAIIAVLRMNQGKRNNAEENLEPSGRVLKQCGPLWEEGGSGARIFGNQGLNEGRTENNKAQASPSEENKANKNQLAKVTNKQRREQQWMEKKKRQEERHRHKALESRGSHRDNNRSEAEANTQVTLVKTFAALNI

As to `O=C(COc1nsnc1N1CCOCC1)Nc1ccccc1F`, the IC50 is > 50 µM (inactive).
For `COc1ccccc1CC(=O)N(C)C(c1ccccc1)c1ccccc1` the value was > 50 µM (inactive).
For `CCOc1ccc(-c2cc3nc(C4CCN(C(=O)OC(C)(C)C)CC4)c(C(=O)Nc4cc(F)ccc4F)cn3n2)cc1` the value was > 50 µM (inactive); for `Cc1ccc(S(=O)(=O)Nc2ccccc2SCCS(=O)(=O)c2ccc(Cl)cc2)cc1`, > 50 µM (inactive); for `C=Cc1ccc(Cn2cccc(S(=O)(=O)N3CCCC3)c2=O)cc1`, > 50 µM (inactive).
The figure for `Cc1noc(-c2cc(=O)n(CC(=O)NCc3ccccc3F)c3ccccc23)n1` is 25 µM; for `Cc1ccc(C)c(CSC2=NCCN2C(=O)c2ccco2)c1` it is > 50 µM (inactive).
On to `O=C(CSc1nnnn1-c1ccccc1)Nc1ccccc1`, for which the IC50 is > 50 µM (inactive).
On to `Cc1cc(C2CC(=O)Nc3c2c(C)nn3-c2nc3ccccc3[nH]2)c(C)s1` (configuration not stated), for which the IC50 is > 50 µM (inactive).
For `Cc1c(-c2nc(-c3ccccc3Cl)no2)nnn1-c1cccc(F)c1` the value was > 50 µM (inactive); for `CCCc1nc2sc3c(NCc4ccco4)ncnc3c2c2c1CCC2`, > 50 µM (inactive); for `COc1ccc(/C=C\c2nccc3c2[nH]c2ccccc23)cc1`, > 50 µM (inactive).
As for `O=C(Cn1c(=O)c2sccc2n(Cc2ccc([N+](=O)[O-])cc2)c1=O)NCCc1ccccc1`, the IC50 was 22.4 µM.
For `Cc1ccc(-c2ncc(C(=O)NCc3cccc(C)c3)c(-c3ccncc3)n2)cc1`, the IC50 was > 50 µM (inactive).
The figure for `N#C/C(=C/c1sc(N2CCOCC2)nc1-c1ccccc1)c1ccccn1` is > 50 µM (inactive).
For `NS(=O)(=O)c1cccc(NS(=O)(=O)c2ccc(/C=C/C(=O)OCC(=O)c3ccc(Br)cc3)cc2)c1` the value was > 50 µM (inactive).
For `O=S(=O)(c1cccc(F)c1)N1CCN(c2nnnn2-c2ccccc2)CC1` the value was > 50 µM (inactive); for `O=C(CSc1ncnc2c1oc1ccccc12)Nc1ccc2c(c1)OCCO2`, 34.5 µM; for `COc1ccc(NC(=O)C2[C@@H]3C(=O)N(C4CCCCC4)C(=O)[C@@H]3[C@H]3c4ccccc4C=CN23)cc1` (some centres not stated), > 50 µM (inactive).
Take `Cc1ccc(S(=O)(=O)N2CCC3(CC2)NC(=O)c2ccccc2N3)cc1C`: the IC50 is > 50 µM (inactive).
As for `CN1CC2CN(C(=O)Nc3cccnc3)CCN2Cc2ccccc21` (configuration not stated), the IC50 is > 50 µM (inactive).
The figure for `Cc1nc(-c2ccccn2)sc1C(=O)Nc1ccc(C#N)cc1` is > 50 µM (inactive); for `O=C(OCc1ccc(Br)cc1)c1ccc2ccccc2n1` it is > 50 µM (inactive); for `Cc1ccc(-c2c(C(=O)Nc3ccc(S(N)(=O)=O)cc3)oc(=O)c3ccccc23)cc1` it is 35 µM.
Turning to `CCOC(=O)c1c(C)oc2nc(CSc3ccccc3)[nH]c(=O)c12`, the IC50 was > 50 µM (inactive).
For `Cc1ccc(C(=O)Nc2ccc(S(=O)(=O)N3CCCC3)cc2)cc1Br` the value was > 50 µM (inactive).
The figure for `COc1ccc(-c2nc(C)c(C(=O)NCc3ccc(S(N)(=O)=O)cc3)s2)cc1` is > 50 µM (inactive); for `N#Cc1ccc(NC(=O)c2ccc(S(=O)(=O)N3CCCCC3)cc2)cc1` it is > 50 µM (inactive); for `COc1ccc(C)cc1NC(=O)COc1ccc2c(c1)OCO2` it is > 50 µM (inactive).
The figure for `CC1=C(c2ccc(F)cc2)S(=O)(=O)N=C1Nc1ccc(Cl)cc1` is > 50 µM (inactive); for `COc1ccc(OC)c(NC(=O)CSc2nc(C)nc3c2oc2ccccc23)c1` it is > 50 µM (inactive).
Consider `Fc1ccccc1N1CCN(c2ncc3c(n2)CCN(Cc2ccccn2)C3)CC1`, for which the IC50 is > 50 µM (inactive).
For `O=C(CCCCn1c(=O)c2ccccc2n(Cc2ccccc2F)c1=O)NCCc1ccccc1` the value was 17 µM; for `O=C(NCc1ccc(-c2nc3cnccc3o2)cc1)c1ccccc1Br`, > 50 µM (inactive); for `COc1ccc(OCC(=O)Nc2ccc(C)c(OCc3cc(=O)n4ccccc4n3)c2)cc1`, > 50 µM (inactive).
For `COc1ccc(NC(=O)CC(=O)c2ccc([N+](=O)[O-])cc2)cc1S(=O)(=O)Nc1ccc(Br)cc1` the value was 28.7 µM; for `C[C@@H](C(=O)NCc1ccc(F)cc1)N1C(=O)N2CCc3c([nH]c4ccccc34)[C@@]2(C)C1=O`, 24.1 µM; for `COc1ccc(CCNc2c(-c3ccccc3O)nc3cnccn23)cc1OC`, > 50 µM (inactive).
`O=C(CSc1nc2cc(C(F)(F)F)ccc2s1)NCC(=O)c1ccccc1`: the IC50 is 22 µM.
With `Cc1cc(-c2cnc(N(C)C)nc2-c2ccc(CNC(=O)Cc3ccc(F)cc3)cc2)on1`, the IC50 is > 50 µM (inactive).
For `Cc1noc(C)c1CN1CC[C@H]2O[C@H](C(=O)NCc3ccco3)CC[C@H]21` the value was > 50 µM (inactive).
For `Cc1ccc(Nc2nc(Nc3cccc(F)c3)nc3nccnc23)c(C)c1` the value was > 50 µM (inactive).
The figure for `Cc1noc(C)c1COc1cccc(C(=O)Nc2cc(Cl)ccc2-n2cncn2)c1` is > 50 µM (inactive); for `COC(=O)c1ccc(Cn2cnc3ccc(F)cc3c2=O)o1` it is > 50 µM (inactive); for `O=C(Nc1ccc(SCc2nnc(-c3ccccc3)o2)cc1)C1CC1` it is > 50 µM (inactive).
On to `COc1ccc(C2CC(c3ccccc3)N(C(=O)C3CC3)c3ncnn32)cc1` (configuration not stated), for which the IC50 was > 50 µM (inactive).
For `Cc1ccc2[nH]c(=O)c(-c3nc4ccc(C)cn4c3NCc3ccc(F)cc3)cc2c1`, the IC50 was 3.37 µM.
Regarding `O=C(c1cc2ccccc2o1)N1CC=C(c2ccccc2)CC1`, the IC50 is > 50 µM (inactive).
The figure for `CC(C)NS(=O)(=O)c1cccc2c(NC(=O)C(Cc3ccccc3)NC(=O)c3ccccc3)cccc12` (configuration not stated) is > 50 µM (inactive); for `CCOC(=O)c1sc2c(c1C)c(=O)n(Cc1ccccc1)c(=O)n2CC(N)=O` it is > 50 µM (inactive); for `C/C1=C/C=C/[C@H](C)[C@H](O)[C@@H](C)[C@@H](O)[C@@H](C)[C@H](O)[C@H](C)[C@@H](O)[C@@H](C)/C=C(/C)C(=O)c2c(O)c(C)cc3c2C(=O)C=C(NC1=O)C3=O` it is > 50 µM (inactive).
For `COc1ccccc1OCC(=O)Nc1ccc2c(c1)CCC(=O)N2Cc1ccccc1` the value was > 50 µM (inactive); for `O=C(Cc1c[nH]c2ccccc12)Nc1nc2ccccc2s1`, > 50 µM (inactive); for `CS(=O)(=O)n1nc(NCc2ccc(F)cc2)nc1NCc1ccc(F)cc1`, > 50 µM (inactive).
For `NC(=O)c1nc(-c2cccc(F)c2)nc2c1[nH]c(=O)n2C1CCCCC1` the value was > 50 µM (inactive); for `CCc1ccc2c(c1)[C@]1(C(=O)N2)[C@@H]2C(=O)N(c3ccc(Cl)cc3Cl)C(=O)[C@@H]2[C@@H]2CCCN21`, > 50 µM (inactive).
On to `C/C=C1/C2=CCCN3C(=O)O[C@H]([C@H]1O)[C@H]23`, for which the IC50 was > 50 µM (inactive).
Regarding `CC(=O)N1CCCC(c2nc(C)cc(-c3cc(F)ccc3C(=O)O)n2)C1` (configuration not stated), the IC50 was > 50 µM (inactive).
The figure for `CS(=O)(=O)NC1CCCN(C(=O)Nc2cccc3ccccc23)C1` (configuration not stated) is > 50 µM (inactive); for `COc1cc2c(cc1OC)-c1cc(Nc3ccc(Br)cc3)nc(=O)n1CC2` it is 8.29 µM; for `O=C(COc1nc2ccccc2nc1N1CCOCC1)NC(c1ccccc1)c1ccccc1` it is > 50 µM (inactive).
Regarding `Cc1ccc(NC(=O)c2cc(-c3cccnc3)n(-c3ccccc3)n2)nc1`, the IC50 was > 50 µM (inactive).
The figure for `CCc1c(Cl)c(O)c(Cl)c(O)c1C(=O)O[C@H]1C(C)O[C@@H](OC/C2=C\C=C\CC(O)/C(C)=C/C(CC)C(O[C@@H]3OC(C)(C)[C@H](O)C(OC(=O)C(C)C)[C@@H]3O)/C(C)=C/C(C)=C/CC(C(C)O)OC2=O)[C@@H](OC)C1O` (some centres not stated) is > 50 µM (inactive); for `CCOc1ccc2c(c1)c(=O)c(C(=O)c1ccc(C)cc1)cn2CC(=O)Nc1ccc(OC)cc1` it is > 50 µM (inactive).
The figure for `Cn1ccc2c(cc(C(=O)NCCC3=CCCCC3)n2C)c1=O` is > 50 µM (inactive); for `Cn1nc(-c2nc(-c3ccccc3)no2)c2c1CCN(C(=O)C1CC1)C2` it is > 50 µM (inactive).
Take `CCc1ccc(NC(=O)COC(=O)c2n[nH]c3ccccc23)cc1`: the IC50 is 49.8 µM.
Regarding `Cc1nn(-c2ccccc2)c(C)c1C(=O)OCC(=O)Nc1cccc(C#N)c1`, the IC50 is > 50 µM (inactive).
On to `CO/C=C/C(=O)c1cc2cnc3c(=N)cc(NC(C)=O)c([nH]1)c23`, for which the IC50 is > 50 µM (inactive).
The figure for `COc1cccc2cccc(O)c12` is > 50 µM (inactive); for `CC1CCc2sc(NC(=O)c3ccccc3Oc3ccccc3)c(C(N)=O)c2C1` (configuration not stated) it is 31.6 µM.
The figure for `Cn1nc(-c2nc(-c3ccccc3)no2)c2c1CCN(C(=O)C1CCCC1)C2` is > 50 µM (inactive); for `COc1ccc(NC(=O)Nc2cccc(-c3nnc(-c4ccccc4)o3)c2)cc1OC` it is 39.3 µM; for `COc1ccc(C(=O)Nc2n[nH]c(C)c2-c2cccc(C)c2)c(OC)c1` it is 28.7 µM.
Take `CC1CCCCN1CCCNC(=O)c1ccc(N2CCc3ccccc32)s1` (configuration not stated): the IC50 was > 50 µM (inactive).
For `O=C(Nc1ccc2c(c1)OCCO2)c1ccc(N2CCCCC2)nn1` the value was > 50 µM (inactive); for `O=C(CCc1ccc(S(=O)(=O)N2CCOCC2)cc1)Nc1ccc2c(c1)OCCO2`, > 50 µM (inactive).
With `Cc1ccc2cc3c(nc2n1)CCN(Cc1ccc(F)cc1)C3`, the IC50 was > 50 µM (inactive).
On to `COc1cccc(C(=O)Nc2ccc(-n3cnnn3)cc2)c1`, for which the IC50 was > 50 µM (inactive).
The figure for `CNc1nc2c(c(=O)n1Cc1ccccc1)CN(C(=O)c1ccc(CN)cc1)CC2` is > 50 µM (inactive); for `O=S(c1ccc2ccccc2c1)c1cnns1` (configuration not stated) it is > 50 µM (inactive); for `Cn1cc2cccc(NC(=O)c3ccc(F)cc3)c2n1` it is > 50 µM (inactive).
